Laboratory results from patent US20170190705A1, “Compositions and Methods for Inhibiting BMP” (THE BRIGHAM AND WOMAN'S HOSPITAL, INC., priority 2014, published 2017).

Experiments:
Type in all cases: biochemical
[1] = biological target: T1, FLT-3 (Homo sapiens, UniProt P36888); experiment: Kinome profiling FLT-3; settings: read-out: Inhibitory activity FLT-3; for inhibition at 0.1 µM: 100 nM
T1 sequence (P36888 27-993): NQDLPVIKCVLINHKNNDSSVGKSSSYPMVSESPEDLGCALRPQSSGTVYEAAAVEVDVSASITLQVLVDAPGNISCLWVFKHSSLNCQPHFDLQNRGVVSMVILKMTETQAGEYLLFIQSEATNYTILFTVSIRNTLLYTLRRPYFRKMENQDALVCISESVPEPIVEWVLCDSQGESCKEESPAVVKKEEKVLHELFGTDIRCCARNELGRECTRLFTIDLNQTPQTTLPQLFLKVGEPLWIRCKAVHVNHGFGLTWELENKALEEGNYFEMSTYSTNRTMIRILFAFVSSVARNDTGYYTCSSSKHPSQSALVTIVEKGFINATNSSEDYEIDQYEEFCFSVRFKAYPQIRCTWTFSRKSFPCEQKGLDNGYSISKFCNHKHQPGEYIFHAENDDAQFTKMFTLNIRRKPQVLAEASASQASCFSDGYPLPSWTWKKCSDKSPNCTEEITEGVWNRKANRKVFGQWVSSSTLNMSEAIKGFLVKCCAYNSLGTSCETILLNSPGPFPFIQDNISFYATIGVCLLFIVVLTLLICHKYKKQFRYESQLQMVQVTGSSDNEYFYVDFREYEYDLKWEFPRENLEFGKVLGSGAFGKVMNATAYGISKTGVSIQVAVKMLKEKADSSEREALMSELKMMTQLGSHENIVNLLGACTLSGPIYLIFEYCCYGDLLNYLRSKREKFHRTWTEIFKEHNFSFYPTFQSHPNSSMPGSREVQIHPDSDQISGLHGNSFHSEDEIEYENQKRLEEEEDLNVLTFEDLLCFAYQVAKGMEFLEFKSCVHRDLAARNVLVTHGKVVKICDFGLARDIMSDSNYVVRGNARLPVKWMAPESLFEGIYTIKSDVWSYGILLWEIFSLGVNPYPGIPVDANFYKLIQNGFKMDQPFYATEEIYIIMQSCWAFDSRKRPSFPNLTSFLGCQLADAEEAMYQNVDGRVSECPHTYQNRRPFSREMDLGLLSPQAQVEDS
Protocol: (§1) . The kinome-wide selectivity was determined following the methods previously reported by Mohedas et al., ACS Chem Biol 2013, 8, 1291-1302 and Sanvitale et al., PLoS One 2013, 8, e62721.

[2] = biological target: T2, MST1 (Homo sapiens, UniProt Q13043); experiment: Kinome profiling MST1; settings: read-out: Inhibitory activity MST1; for inhibition at 0.1 µM: 100 nM
T2 sequence (Q13043 1-487): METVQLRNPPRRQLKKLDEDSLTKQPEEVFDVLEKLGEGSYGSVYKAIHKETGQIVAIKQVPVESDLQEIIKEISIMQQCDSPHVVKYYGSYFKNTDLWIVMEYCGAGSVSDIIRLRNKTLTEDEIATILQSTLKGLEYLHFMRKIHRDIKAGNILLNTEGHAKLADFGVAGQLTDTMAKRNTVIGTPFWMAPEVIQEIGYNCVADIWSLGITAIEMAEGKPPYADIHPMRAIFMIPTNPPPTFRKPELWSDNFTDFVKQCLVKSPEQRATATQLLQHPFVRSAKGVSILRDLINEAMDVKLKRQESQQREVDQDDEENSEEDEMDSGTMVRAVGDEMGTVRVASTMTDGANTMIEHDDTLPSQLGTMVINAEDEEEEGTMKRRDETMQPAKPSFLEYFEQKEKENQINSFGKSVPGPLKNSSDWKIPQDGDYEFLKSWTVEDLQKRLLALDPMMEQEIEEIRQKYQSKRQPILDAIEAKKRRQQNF
Protocol: as §1

[3] = biological target: IRR (Homo sapiens, UniProt P14616); experiment: Kinome profiling IRR; settings: read-out: Inhibitory activity IRR; for inhibition at 0.1 µM: 100 nM
IRR, sequence (P14616 27-1297): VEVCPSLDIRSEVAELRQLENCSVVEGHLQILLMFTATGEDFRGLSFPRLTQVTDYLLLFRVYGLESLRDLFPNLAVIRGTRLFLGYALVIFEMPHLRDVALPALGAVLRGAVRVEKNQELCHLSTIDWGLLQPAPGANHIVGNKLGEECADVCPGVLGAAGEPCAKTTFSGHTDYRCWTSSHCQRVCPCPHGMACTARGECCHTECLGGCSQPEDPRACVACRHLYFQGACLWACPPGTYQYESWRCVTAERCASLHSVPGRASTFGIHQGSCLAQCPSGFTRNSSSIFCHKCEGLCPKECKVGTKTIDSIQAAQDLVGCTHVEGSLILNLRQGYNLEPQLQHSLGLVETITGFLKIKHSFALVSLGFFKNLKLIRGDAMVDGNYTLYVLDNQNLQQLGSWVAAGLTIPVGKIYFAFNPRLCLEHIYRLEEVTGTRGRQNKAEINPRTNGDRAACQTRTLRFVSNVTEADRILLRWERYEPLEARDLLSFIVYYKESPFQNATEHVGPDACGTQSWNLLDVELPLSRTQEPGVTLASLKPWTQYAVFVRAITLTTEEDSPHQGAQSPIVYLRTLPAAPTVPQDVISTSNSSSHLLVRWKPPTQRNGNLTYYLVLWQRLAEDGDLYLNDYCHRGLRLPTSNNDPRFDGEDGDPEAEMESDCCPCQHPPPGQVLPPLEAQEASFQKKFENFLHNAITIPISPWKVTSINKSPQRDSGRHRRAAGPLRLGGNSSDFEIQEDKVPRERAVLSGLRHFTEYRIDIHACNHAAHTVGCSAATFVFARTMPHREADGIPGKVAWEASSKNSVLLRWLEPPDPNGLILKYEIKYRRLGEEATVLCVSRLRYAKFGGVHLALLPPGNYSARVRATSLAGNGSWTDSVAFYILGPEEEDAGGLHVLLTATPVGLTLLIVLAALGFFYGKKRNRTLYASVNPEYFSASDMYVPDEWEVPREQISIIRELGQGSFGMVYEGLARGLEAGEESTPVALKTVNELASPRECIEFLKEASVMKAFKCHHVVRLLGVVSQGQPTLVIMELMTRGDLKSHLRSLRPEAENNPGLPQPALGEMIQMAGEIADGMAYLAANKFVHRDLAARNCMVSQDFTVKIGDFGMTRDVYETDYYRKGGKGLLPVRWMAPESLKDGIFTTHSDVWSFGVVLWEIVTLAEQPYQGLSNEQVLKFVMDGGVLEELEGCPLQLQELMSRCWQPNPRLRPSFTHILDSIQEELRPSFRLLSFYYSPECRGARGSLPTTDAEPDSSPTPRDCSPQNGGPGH
Protocol: as §1

[4] = biological target: MEK1 (Homo sapiens, UniProt Q02750); experiment: Kinome profiling MEK1; settings: read-out: Inhibitory activity MEK1; for inhibition at 0.1 µM: 100 nM
MEK1, sequence (Q02750 whole entry): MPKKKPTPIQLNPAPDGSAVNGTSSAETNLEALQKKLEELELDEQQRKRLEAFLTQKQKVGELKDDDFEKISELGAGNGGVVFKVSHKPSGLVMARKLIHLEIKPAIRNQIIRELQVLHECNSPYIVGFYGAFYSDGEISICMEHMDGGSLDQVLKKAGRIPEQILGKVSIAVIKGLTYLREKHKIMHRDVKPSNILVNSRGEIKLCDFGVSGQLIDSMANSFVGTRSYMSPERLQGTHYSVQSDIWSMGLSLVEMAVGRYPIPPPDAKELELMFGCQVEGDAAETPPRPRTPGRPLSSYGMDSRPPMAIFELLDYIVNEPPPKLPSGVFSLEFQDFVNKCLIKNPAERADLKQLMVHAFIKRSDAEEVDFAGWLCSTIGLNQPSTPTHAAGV
Protocol: as §1

| Compound | inhibition at 0.1 µM [1] [%] | inhibition at 1 µM [1] [%] | inhibition at 0.1 µM [2] [%] | inhibition at 1 µM [2] [%] | inhibition at 0.1 µM [3] [%] | inhibition at 1 µM [3] [%] | inhibition at 0.1 µM [4] [%] | inhibition at 1 µM [4] [%] |
| --- | --- | --- | --- | --- | --- | --- | --- | --- |
| COc1cc(-c2cc(-c3ccc(N4CCNCC4)cc3)cnc2C)cc(OC)c1OC [Compound 10, 1-(4-(6-methyl-5-(3,4,5-trimethoxyphenyl)pyridin-3-yl)phenyl)piperazine] | 3 | 18 | 3 | 3 | 2 | 1 | 0 | 2 |
| COc1cc(-c2cc(-c3ccc(N4CCNCC4)cc3)cnc2N)cc(OC)c1OC [Compound 15, 5-(4-(piperazin-1-yl)phenyl)-3-(3,4,5-trimethoxyphenyl)pyridin-2-amine] | 1 | 5 | 3 | 10 | 3 | 3 | 3 | 6 |
